How the values were obtained:
[1] = target: Endothelin receptor, ET-A/ET-B (Homo sapiens) (UniProt P24530+P25101); experiment: Selectivity was calculated as the ratio of IC50 of Endothelin B receptor / IC50 of Endothelin A receptor; assay type: protein assay
[2] = target: T1, Endothelin receptor type B (Homo sapiens, UniProt P24530); experiment: Inhibitory activity against I-labeled ET-1 binding to Endothelin B receptor
T1 sequence (P24530 whole entry): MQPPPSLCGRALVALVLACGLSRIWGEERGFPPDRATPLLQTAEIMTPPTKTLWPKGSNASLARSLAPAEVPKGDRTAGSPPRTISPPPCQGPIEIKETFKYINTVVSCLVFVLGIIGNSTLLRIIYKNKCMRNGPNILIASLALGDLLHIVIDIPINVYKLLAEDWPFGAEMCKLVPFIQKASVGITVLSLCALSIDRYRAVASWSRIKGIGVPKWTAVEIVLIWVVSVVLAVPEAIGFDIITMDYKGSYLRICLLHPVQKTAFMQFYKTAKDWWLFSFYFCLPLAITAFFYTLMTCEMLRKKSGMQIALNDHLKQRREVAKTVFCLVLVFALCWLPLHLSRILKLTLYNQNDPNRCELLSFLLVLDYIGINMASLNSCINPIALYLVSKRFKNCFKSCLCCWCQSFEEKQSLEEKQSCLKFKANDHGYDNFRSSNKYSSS

Endothelin-1 receptor = target: T2, Endothelin-1 receptor (Homo sapiens, UniProt P25101); experiment: Inhibitory activity against I-labeled ET-1 binding to Endothelin A receptor
T2 sequence (P25101 whole entry): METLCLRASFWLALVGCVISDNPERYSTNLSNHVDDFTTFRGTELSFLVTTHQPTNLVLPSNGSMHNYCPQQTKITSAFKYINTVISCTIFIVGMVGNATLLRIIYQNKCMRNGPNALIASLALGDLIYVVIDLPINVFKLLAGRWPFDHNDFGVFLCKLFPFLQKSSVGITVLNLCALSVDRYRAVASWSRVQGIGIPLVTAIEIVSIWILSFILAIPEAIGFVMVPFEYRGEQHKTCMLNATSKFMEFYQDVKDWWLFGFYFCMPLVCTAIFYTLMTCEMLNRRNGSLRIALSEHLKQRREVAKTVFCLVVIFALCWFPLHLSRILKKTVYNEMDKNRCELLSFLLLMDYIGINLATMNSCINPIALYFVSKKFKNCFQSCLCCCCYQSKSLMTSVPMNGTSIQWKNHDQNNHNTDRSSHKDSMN

Compound	Ratio [1]	IC50 [2]	IC50 (Endothelin-1 receptor)
C=CCCc1ccc2c(n1)[C@@H](c1ccc(OC)cc1)[C@H](C(=O)O)[C@H]2c1ccc2c(c1)OCO2	70	14 nM	0.2 nM
COc1ccc([C@@H]2c3nc(CC(C)C)ccc3[C@H](c3ccc4c(c3)OCO4)[C@H]2C(=O)O)cc1	26	8.4 nM	0.32 nM
CCc1ccc2c(n1)[C@@H](c1ccc(OC)cc1)[C@H](C(=O)O)[C@H]2c1ccc2c(c1)OCO2	19	87 nM	4.5 nM
COc1ccc([C@@H]2c3ncccc3[C@H](c3ccc4c(c3)OCO4)[C@H]2C(=O)O)cc1	170	410 nM	2.4 nM
CCCCc1ccc2c(n1)[C@@H](c1ccc(OC)cc1)[C@H](C(=O)O)[C@H]2c1ccc2c(c1)OCO2	52	11 nM	0.21 nM
COc1ccc([C@@H]2c3nc(C)ccc3[C@H](c3ccc4c(c3)OCO4)[C@H]2C(=O)O)cc1	18	100 nM	5.7 nM
CCCc1ccc2c(n1)[C@@H](c1ccc(OC)cc1)[C@H](C(=O)O)[C@H]2c1ccc2c(c1)OCO2	81	30 nM	0.37 nM
CCCCCc1ccc2c(n1)[C@@H](c1ccc(OC)cc1)[C@H](C(=O)O)[C@H]2c1ccc2c(c1)OCO2	4.8	9.1 nM	1.9 nM
COc1ccc([C@@H]2c3nc(C4CC4)ccc3[C@H](c3ccc4c(c3)OCO4)[C@H]2C(=O)O)cc1	39	63 nM	1.6 nM
COc1ccc([C@@H]2c3nc(N4CCCC4)ccc3C(c3ccc4c(c3)OCO4)[C@H]2C(=O)O)cc1 (single isomer, unassigned)	9.5	21 nM	2.2 nM
COc1ccc([C@@H]2c3nc(-c4ccccc4)ccc3C(c3ccc4c(c3)OCO4)[C@H]2C(=O)O)cc1 (single isomer, unassigned)	8.7	130 nM	15 nM
COc1ccc([C@@H]2c3nc(N(C)C(C)C)ccc3C(c3ccc4c(c3)OCO4)[C@H]2C(=O)O)cc1 (single isomer, unassigned)	4.4	14 nM	3.2 nM
CCCSc1ccc2c(n1)[C@@H](c1ccc(OC)cc1)[C@H](C(=O)O)C2c1ccc2c(c1)OCO2 (single isomer, unassigned)	6.5	53 nM	8.2 nM
CCNCc1ccc2c(n1)[C@@H](c1ccc(OC)cc1)[C@H](C(=O)O)C2c1ccc2c(c1)OCO2 (single isomer, unassigned)	130	940 nM	7 nM
CCCOc1ccc2c(n1)[C@@H](c1ccc(OC)cc1)[C@H](C(=O)O)C2c1ccc2c(c1)OCO2 (single isomer, unassigned)	71	65 nM	0.92 nM
COc1ccc([C@@H]2c3nc(CCC(=O)O)ccc3C(c3ccc4c(c3)OCO4)[C@H]2C(=O)O)cc1 (single isomer, unassigned)	3.5	530 nM	150 nM
COc1ccc([C@@H]2c3nc(CCCO)ccc3C(c3ccc4c(c3)OCO4)[C@H]2C(=O)O)cc1 (single isomer, unassigned)	350	190 nM	0.55 nM
CCOCc1ccc2c(n1)[C@@H](c1ccc(OC)cc1)[C@H](C(=O)O)C2c1ccc2c(c1)OCO2 (single isomer, unassigned)	270	140 nM	0.51 nM
CCCNc1ccc2c(n1)[C@@H](c1ccc(OC)cc1)[C@H](C(=O)O)C2c1ccc2c(c1)OCO2 (single isomer, unassigned)	520	63 nM	0.12 nM
COc1ccc([C@@H]2c3nc(NC(C)C)ccc3C(c3ccc4c(c3)OCO4)[C@H]2C(=O)O)cc1 (single isomer, unassigned)	420	42 nM	0.1 nM
